Reference: patent US20090074672A1, “Tumor Boundary Imaging” (SRI International, priority 2007, published 2009)
Where no end group is shown, it is not given here.

Test system: fibrin gel
Test: TG substrate viability: cross-linking into fibrin gel
Type: biochemical
Conditions: in the presence of Ca2+
Description: TG Substrate Viability Assays. Viability was tested by: (1) cross-linking into fibrin gel, and (2) reacting with fibrinogen in the presence of Guinea pig liver TG. […] In the presence of Ca2+, cross-linked fibrin clots were formed.

peptide: TG substrate peptide NQEQVSP (SEQ ID NO:01) conjugated to FITC or HiLyte Fluor 750 via N-hydroxysuccinimide chemistry (also: FITC or HiLyte Fluor 750 conjugated via NHS chemistry)
cross-linking into fibrin clot (fluorescence intensity): crosslinked into the fibrin clot
